According to patent US9045491B2, “Thienyl [3,2-D] pyrimidin-4-one compounds, preparation method, pharmaceutical compositions and use thereof” (SHANGHAI INSTITUTE OF MATERIA MEDICA, CHINESE ACADEMY OF …, priority 2011, dated 2015):

Experiments:
[1] = Safety evaluation: single dose 100 mg/kg by gavage, one week observation; type: in vivo, ICR mouse; conditions: for body weight and viscera index versus normal control group (in words) / acute toxicity / kidney index versus normal control group (in words): ICR mouse; for body weight and viscera index versus normal control group (in words) / Kidney index / Liver index / Spleen index / body weight / food consumption: 100 mg/kg single dose; for acute toxicity: 100 mg/kg single dose by gavage, one week; for kidney index versus normal control group (in words): 100 mg/kg, 7th day after administration; for Kidney index / Liver index / Spleen index / body weight / food consumption: normal ICR mouse; for Kidney index / Liver index / Spleen index: 7th day
Description: After grouping, each compound was administrated once through gavage according to the dose of 100 mg/kg at the same time.

normal ICR mouse = test: Oral glucose tolerance test (OGTT), acute hypoglycemic effect of single oral dose; type: in vivo; conditions: for hypoglycemic ability in vivo, oral glucose tolerance test: single dose 3 mg/kg by gavage, glucose 2.5 g/kg after 6 hours, FIGS. 7-10
Description: Acute hypoglycemic effect of single dose through mouth on the normal ICR mouse
Animal: ICR mouse (8-10 weeks old, sex: male, weight: 25-30 g, purchased from Shanghai SLAC Laboratory Animal Center).
1. Two days before the experiment, the food consumption was recorded and the daily food consumption of each animal was calculated;
2. The animals fasted overnight (⅓ of daily food consumption was provided, about 2 g);
3. The blood glucose was measured on the second day.
4. The medicament was administrated through gavage (1 mouse/min). After 6 hours, the blood glucose was measured. Glucose was administrated through gavage according to the body weight (2.5 g/kg). The blood glucose value was monitored at 30 min, 60 min, 90 min, and 120 min after administration.

DPP IV = target: T1, DPP IV (Mus musculus, UniProt P28843); test: DPP IV inhibitory activity in vivo: DPP IV activity in plasma of ICR mouse after single oral dose; conditions: oral 3 mg/kg, compared with Alogliptin and Vildagliptin (LAF237), FIG. 1-6
T1 construct: from tissue; host or cells: plasma of ICR mouse
Description: Animals: ICR mouse (8-10 weeks old; sex: male; 25 g-30 g of body weight, purchased from Shanghai SLAC Laboratory Animal Center).
Meanwhile the solvent group was used as blank control. The blood was taken from orbital venous plexus of the mouse before administration, and 30, 60, 2 h, 4 h, 6 h, 8 h and […] after administration, respectively and loaded into Eppendorf tube (Qizhong Industrial (Shanghai) co., Ltd.) treated by anticoagulant. The plasma was obtained by centrifugation and DPP IV activity was determined.

T1 sequence (P28843 37-760 limits assumed): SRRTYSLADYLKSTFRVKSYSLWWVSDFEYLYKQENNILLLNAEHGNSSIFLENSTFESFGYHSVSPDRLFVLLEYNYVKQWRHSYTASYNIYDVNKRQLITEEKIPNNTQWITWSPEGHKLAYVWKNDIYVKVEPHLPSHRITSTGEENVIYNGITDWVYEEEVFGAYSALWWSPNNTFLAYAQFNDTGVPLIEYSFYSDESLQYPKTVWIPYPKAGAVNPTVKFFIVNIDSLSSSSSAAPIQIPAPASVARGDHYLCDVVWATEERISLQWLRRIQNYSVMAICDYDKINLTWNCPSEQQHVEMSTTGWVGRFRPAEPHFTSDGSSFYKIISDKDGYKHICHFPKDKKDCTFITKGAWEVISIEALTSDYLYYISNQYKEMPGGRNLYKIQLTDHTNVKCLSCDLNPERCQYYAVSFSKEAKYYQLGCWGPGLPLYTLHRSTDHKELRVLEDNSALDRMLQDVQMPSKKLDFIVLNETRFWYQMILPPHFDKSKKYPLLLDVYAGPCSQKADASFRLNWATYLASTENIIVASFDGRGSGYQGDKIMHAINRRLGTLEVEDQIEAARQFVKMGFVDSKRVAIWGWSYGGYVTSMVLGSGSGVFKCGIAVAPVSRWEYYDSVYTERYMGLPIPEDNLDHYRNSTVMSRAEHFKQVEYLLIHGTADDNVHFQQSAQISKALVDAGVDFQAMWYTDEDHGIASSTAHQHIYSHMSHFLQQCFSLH

SMILES | body weight and viscera index versus normal control group (in words) [1] | acute toxicity [1] | kidney index versus normal control group (in words) [1] | Kidney index [1] | Liver index [1] | Spleen index [1] | body weight ([1]; 1 d after administration) | food consumption ([1]; 1 d after administration) | body weight ([1]; 2 d after administration) | food consumption ([1]; 2 d after administration) | body weight ([1]; 3 d after administration) | food consumption ([1]; 3 d after administration) | body weight ([1]; 4 d after administration) | food consumption ([1]; 4 d after administration) | body weight ([1]; 5 d after administration) | food consumption ([1]; 5 d after administration) | body weight ([1]; 6 d after administration) | food consumption ([1]; 6 d after administration) | body weight ([1]; 7 d after administration) | food consumption ([1]; 7 d after administration) | other results
N#Cc1ccccc1Cn1c(N2CCC[C@@H](N)C2)nc2cc(C(Br)Br)sc2c1=O [DC291411] | no statistical difference | did not reflect obvious acute toxicity | slightly lower than that of normal control group | 1.4 ± 0.1% | 5.0 ± 0.4% | 0.4 ± 0.0% | 30.5 ± 1.6 g | 19.3 g · day^−1 · cage^−1 | 31.2 ± 1.6 g | 21.3 g · day^−1 · cage^−1 | 31.0 ± 1.7 g | 18.8 g · day^−1 · cage^−1 | 31.5 ± 1.9 g | 18.3 g · day^−1 · cage^−1 | 31.8 ± 1.5 g | 17.7 g · day^−1 · cage^−1 | 31.6 ± 1.8 g | 20.5 g · day^−1 · cage^−1 | 32.1 ± 1.7 g | 21.9 g · day^−1 · cage^−1 | body weight ([1]; before administration): 30 ± 1.5 g; food consumption ([1]; before administration): 20.8 g · day^−1 · cage^−1; hypoglycemic ability in vivo, oral glucose tolerance test (normal ICR mouse): comparable to that of Alogliptin; DPP IV activity of ICR mouse plasma after single dose (given as hypoglycemic ability in vivo) (DPP IV): comparable to that of Alogliptin (3 mg), and better than that of Vildagliptin (LAF237, 15 mg)
N#Cc1ccccc1Cn1c(N2CCC[C@@H](N)C2)nc2c(CO)csc2c1=O [DC291004] | no statistical difference | did not reflect obvious acute toxicity | did not significantly differ | 1.5 ± 0.1% | 5.3 ± 0.3% | 0.4 ± 0.0% | 30.3 ± 1.0 g | 18.7 g · day^−1 · cage^−1 | 30.8 ± 0.9 g | 21.0 g · day^−1 · cage^−1 | 31.0 ± 1.2 g | 21.1 g · day^−1 · cage^−1 | 31.6 ± 1.2 g | 21.5 g · day^−1 · cage^−1 | 32.0 ± 1.6 g | 21.9 g · day^−1 · cage^−1 | 32.0 ± 1.2 g | 21.5 g · day^−1 · cage^−1 | 32.5 ± 1.3 g | 24.1 g · day^−1 · cage^−1 | body weight ([1]; before administration): 30.2 ± 0.7 g; food consumption ([1]; before administration): 22.5 g · day^−1 · cage^−1; hypoglycemic ability in vivo, oral glucose tolerance test (normal ICR mouse): comparable to that of Alogliptin; DPP IV activity of ICR mouse plasma after single dose (given as hypoglycemic ability in vivo) (DPP IV): comparable to that of Alogliptin (3 mg), and better than that of Vildagliptin (LAF237, 15 mg)
COC(=O)c1csc2c(=O)n(Cc3ccccc3C#N)c(N3CCC[C@@H](N)C3)nc12 [DC291009] | no statistical difference | did not reflect obvious acute toxicity | slightly lower than that of normal control group | 1.4 ± 0.1% | 5.3 ± 0.2% | 0.4 ± 0.1% | 31.3 ± 2.0 g | 21.2 g · day^−1 · cage^−1 | 31.5 ± 2.3 g | 21.3 g · day^−1 · cage^−1 | 31.8 ± 2.3 g | 22.6 g · day^−1 · cage^−1 | 32.3 ± 2.2 g | 22.8 g · day^−1 · cage^−1 | 32.4 ± 2.5 g | 22.2 g · day^−1 · cage^−1 | 32.6 ± 2.6 g | 21.9 g · day^−1 · cage^−1 | 33 ± 2.6 g | 23.8 g · day^−1 · cage^−1 | body weight ([1]; before administration): 30.8 ± 2.2 g; food consumption ([1]; before administration): 23.3 g · day^−1 · cage^−1; hypoglycemic ability in vivo, oral glucose tolerance test after multiple single-dose administration (normal ICR mouse; single administration at multiple doses, FIGS. 11-12): comparable to that of Alogliptin; hypoglycemic ability in vivo, oral glucose tolerance test (normal ICR mouse): comparable to that of Alogliptin; DPP IV activity of ICR mouse plasma after single dose (given as hypoglycemic ability in vivo) (DPP IV): comparable to that of Alogliptin (3 mg), and better than that of Vildagliptin (LAF237, 15 mg)
